Test results as given in ChEMBL document CHEMBL5356986, “Research status of indole-modified natural products” (RSC Med Chem, 2023).
≈ marks a conversion by molar mass, not a printed value.

Experiments:
HeLa [1] = test: Antiproliferative activity against human HeLa cells assessed as inhibition of cell growth incubated for 72 hrs by MTT assay; assay type: functional, cell-based
Toxoplasma gondii = test: Antiparasitic activity against Toxoplasma gondii tachyzoites infected in human HeLa cells; assay type: functional, organism-based
Bel-7402 = test: Cytotoxicity against human Bel-7402 cells assessed as reduction in cell viability; assay type: functional, cell-based
HCT-116 = test: Cytotoxicity against human HCT-116 cells assessed as reduction in cell viability by MTS assay; assay type: functional, cell-based
MCF7 [2] = test: Cytotoxicity against human MCF7 cells assessed as reduction in cell viability by MTS assay; assay type: functional, cell-based
Arthrodermataceae = test: Antibacterial activity against Arthrodermataceae; assay type: functional
Nannizzia gypsea = test: Antifungal activity against Microsporum gypseum assessed as fungal growth inhibition; assay type: functional
[3] = test system: Trichophyton mentagrophytes; test: Antifungal activity against Trichophyton mentagrophytes assessed as inhibition of microbial growth; assay type: functional
Caco-2 = test: Antiproliferative activity against human Caco-2 cells incubated for 96 hrs by MTT assay; assay type: functional, cell-based; details: Caco-2, 96 h
Alpha glucosidase [4] = molecular target: T1, Alpha glucosidase (Homo sapiens, UniProt O43451+P10253+P14410+Q2M2H8); test: Inhibition of Alpha-glucosidase (unknown origin) using p-nitrophenyl glucopyranoside as substrate by UV based microplate reader analysis; assay type: protein assay
[5] = test system: Trichophyton mentagrophytes; test: Antifungal activity against Trichophyton mentagrophytes assessed as inhibition of fungal growth incubated for 48 hrs by serial plate dilution method; assay type: functional
HeLa [6] = test: Cytotoxicity against human HeLa cells assessed as reduction in cell viability incubated for 48 hrs by MTT assay; assay type: functional, cell-based
PC-3 = test: Antiproliferative activity against human PC-3 cells assessed as reduction in cell growth measured after 24 hrs by MTT assay; assay type: functional, cell-based; details: PC-3, 24 h
[7] = test system: Mycobacterium tuberculosis; test: Antimycobacterial activity against Mycobacterium tuberculosis H37Rv assessed as reduction in bacterial cell growth; assay type: functional
Alpha glucosidase [8] = molecular target: T1, Alpha glucosidase; test: Inhibition of Alpha-glucosidase (unknown origin) spectrophotometric analysis; assay type: protein assay
MCF7 [9] = test: Antiproliferative activity against human MCF7 cells assessed as inhibition of cell growth by CCK8 assay; assay type: functional, cell-based
MDA-MB-453 = test: Antiproliferative activity against human MDA-MB-453 cells assessed as inhibition of cell growth incubated for 48 hrs by MTT assay; assay type: functional, cell-based; details: MDA-MB-453, 48 h
MDA-MB-231 = test: Antiproliferative activity against human MDA-MB-231 cells assessed as reduction in cell viability incubated for 48 hrs by MTT assay; assay type: functional, cell-based; details: MDA-MB-231, 48 h
SMMC-7721 = test: Cytotoxicity against human SMMC-7721 cells assessed as reduction in cell viability; assay type: functional, cell-based
HepG2 [10] = test: Cytotoxicity against human HepG2 cells by MTT assay; assay type: functional, cell-based
[11] = molecular target: Tyrosine-protein phosphatase non-receptor type 1 (Homo sapiens, UniProt P18031); test: Inhibition of Protein tyrosine phosphatase 1B (unknown origin)
A549 = test: Antiproliferative activity against human A549 cells assessed as reduction in cell growth incubated for 72 hrs by MTT assay; assay type: functional, cell-based; details: A549, 72 h
HeLa [12] = test: Cytotoxicity against human HeLa cells assessed as cell growth inhibition incubated for 24 hrs by MTT assay; assay type: functional, cell-based
HepG2 [13] = test: Antiproliferative activity against human HepG2 cells assessed as reduction in cell viability incubated for 48 hrs by MTT assay; assay type: functional, cell-based; details: HepG2, 48 h
[14] = molecular target: Prostaglandin G/H synthase 2 (Homo sapiens, UniProt P35354); test: Inhibition of COX-2 (unknown origin)
Chain of Prostaglandin G/H synthase 2 (P35354 whole entry): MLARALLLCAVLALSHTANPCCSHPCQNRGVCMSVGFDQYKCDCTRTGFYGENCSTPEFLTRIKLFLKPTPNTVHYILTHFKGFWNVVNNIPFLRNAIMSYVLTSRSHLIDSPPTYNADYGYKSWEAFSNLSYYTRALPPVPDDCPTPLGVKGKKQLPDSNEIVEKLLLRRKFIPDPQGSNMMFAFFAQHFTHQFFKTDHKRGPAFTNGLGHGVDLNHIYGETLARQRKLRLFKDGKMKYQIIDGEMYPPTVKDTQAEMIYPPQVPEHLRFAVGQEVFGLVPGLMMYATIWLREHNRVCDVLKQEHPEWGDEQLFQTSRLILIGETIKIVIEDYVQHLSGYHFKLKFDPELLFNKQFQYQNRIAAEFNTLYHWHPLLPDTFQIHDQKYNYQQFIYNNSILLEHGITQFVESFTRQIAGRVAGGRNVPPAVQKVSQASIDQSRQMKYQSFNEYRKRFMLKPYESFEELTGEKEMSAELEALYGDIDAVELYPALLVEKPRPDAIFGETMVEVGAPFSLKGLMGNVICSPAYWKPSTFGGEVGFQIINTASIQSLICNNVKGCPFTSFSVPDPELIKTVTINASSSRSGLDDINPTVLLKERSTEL

Chain of Tyrosine-protein phosphatase non-receptor type 1 (P18031 whole entry): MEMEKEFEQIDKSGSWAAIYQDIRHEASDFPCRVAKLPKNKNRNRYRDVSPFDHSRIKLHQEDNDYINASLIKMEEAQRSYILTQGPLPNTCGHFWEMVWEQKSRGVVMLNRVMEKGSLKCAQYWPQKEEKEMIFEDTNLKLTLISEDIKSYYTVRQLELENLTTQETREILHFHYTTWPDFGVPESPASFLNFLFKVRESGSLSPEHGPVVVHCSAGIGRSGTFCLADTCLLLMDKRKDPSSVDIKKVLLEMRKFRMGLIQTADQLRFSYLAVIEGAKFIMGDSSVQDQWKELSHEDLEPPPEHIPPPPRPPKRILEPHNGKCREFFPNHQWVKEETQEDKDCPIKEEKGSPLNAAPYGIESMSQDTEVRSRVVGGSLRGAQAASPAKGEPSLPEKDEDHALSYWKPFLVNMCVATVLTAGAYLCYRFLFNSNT

With `COc1cc(C(=O)/C=C/c2c[nH]c3ccccc23)cc([Se]C)c1OC` the IC50 (HeLa [1]) was 0.059 µM and the IC50 (Toxoplasma gondii; Toxoplasma gondii, HeLa) was 0.023 µM.
Molecule `C=C1C(=O)[C@]23[C@H](OC(=O)c4cc5cc(OC)ccc5[nH]4)[C@H]1CC[C@H]2[C@@]12COC3(O)[C@@H](O)[C@@H]1C(C)(C)CC[C@@H]2O` (single isomer, unassigned) has an IC50 (Bel-7402) of 0.83 µM, an IC50 (HCT-116) of 0.81 µM and an IC50 (MCF7 [2]) of 0.39 µM.
Work on `COc1ccc(/C=C/C(=O)c2c[nH]c3ccccc23)cc1` yielded an MIC (Arthrodermataceae) of 8 mg/L (≈ 28.8 µM), an MIC (Nannizzia gypsea) of 4 mg/L (≈ 14.4 µM) and an MIC [3] of 8 mg/L.
For `COc1cc(/C=C/C(=O)/C=C/c2c[nH]c3ccccc23)ccc1O`, the IC50 (Caco-2) was 8 µM.
Work on `C=C(C)[C@@H](C)CC[C@@H](C)C1CC[C@@]2(C)[C@@H]3CC[C@H]4[C@H](C)c5[nH]c6ccccc6c5C[C@@]45C[C@@]35CC[C@]12C` (stereo not given in full) yielded an IC50 (Alpha glucosidase [4]) of 115.2 µM.
Molecule `CCOc1c(Br)cc(/C=C/C(=O)c2c[nH]c3ccccc23)cc1OC` has an MIC (Nannizzia gypsea) of 0.25 mg/L (≈ 0.625 µM), an MIC [5] of 2 mg/L (≈ 5 µM) and an MIC [3] of 4 mg/L.
Molecule `COc1cc(/C=C/C(=O)CC(=O)/C=C/c2ccc(O)c(OC)c2)ccc1O` [CURCUMIN] has an IC50 (HeLa [6]) of 25.4 µM, an IC50 (PC-3) of 12.2 µM and an IC50 (Caco-2) of 47.6 µM.
`COc1cc(/C=C/C(=O)c2c[nH]c3ccccc23)cc(Br)c1OC` gave an MIC (Nannizzia gypsea) of 1 mg/L (≈ 2.59 µM), an MIC [5] of 32 mg/L (≈ 82.8 µM) and an MIC [3] of 16 mg/L.
`O=C(c1ccncc1)n1nc(-c2c[nH]c3ccccc23)cc1-c1cc2ccccc2oc1=O` showed an MIC [7] of 2.02 µM (≈ 0.874 µg/mL).
Work on `COc1ccc2c(CSC(=S)NCCc3c[nH]c4ccccc34)cc(=O)oc2c1` yielded an IC50 (Alpha glucosidase [8]) of 85 µM.
`C[C@]12CC[C@H](OC(=O)[C@H](N)c3c[nH]c4ccccc34)C[C@H]1CC[C@@H]1[C@@H]2[C@H](N)C(=O)[C@]2(C)[C@@H](c3ccc(=O)oc3)CC[C@]12O` showed an IC50 (MCF7 [9]) of 11.6 µM, an IC50 (MDA-MB-453) of 0.0106 µM and an IC50 (MDA-MB-231) of 0.027 µM.
`Cc1ccc2[nH]c3c(c2c1)C[C@]1(C)[C@H]2CC=C4[C@@H]5[C@@H](C)[C@H](C)CC[C@]5(C(=O)NCCCN(C)C)CC[C@@]4(C)[C@]2(C)CC[C@H]1C3(C)C` was tested, and the IC50 (SMMC-7721) was 1.08 µM.
`COc1ccc(C(=O)/C=C/c2ccc3c(ccn3C)c2)c2c1C=CC(C)(C)O2` showed an IC50 (HepG2 [10]) of 0.82 µM.
`COc1ccc(/C=C/C(=O)/C=C/c2c[nH]c3ccccc23)c(OC)c1OC` showed an IC50 (HeLa [6]) of 3.31 µM and an IC50 (PC-3) of 3.15 µM.
For `CC1(C)c2[nH]c3ccc(C(F)(F)F)cc3c2C[C@]2(C)[C@H]3C(=O)C=C4[C@@H]5C[C@@](C)(C(=O)O)CC[C@]5(C)CC[C@@]4(C)[C@]3(C)CC[C@@H]12`, the IC50 [11] was 4.3 µM.
Molecule `CCOc1c(Br)cc(/C=C/C(=O)c2cc3ccccc3n2C)cc1OC` has an IC50 (A549) of 4.3 µM.
For `C[C@]12CC[C@H]3[C@]4(C=C[C@]5(C[C@@H](O)CC[C@]35C)OO4)[C@@H]1CC/C2=N\N=C1/C(=O)Nc2ccc(Cl)cc21`, the IC50 (HeLa [12]) was 5.69 µM, the IC50 (MCF7 [9]) was 9.05 µM and the IC50 (HepG2 [13]) was 7.97 µM.
In the case of SPIRAMYCIN, the IC50 (Toxoplasma gondii) is reported as 262 µM.
`CC1=NN(c2ccccc2)C(=O)/C1=C\c1cn(CCCOc2cc(O)c3c(=O)cc(-c4ccccc4)oc3c2)c2ccccc12` was tested, and the IC50 [14] was 0.7 µM.
